Experiment [1] deals with non-small cell lung cancer cell line H460. The experiment in a line: H460 proliferation assay in the presence of 3 uM ASP9521 (AKR1C3 specific inhibitor). It counts as cell-based, human. Particulars: H460 cells, CellTiter-Glo, 72 hours, in the presence of 3 uM ASP9521 added 4 hours prior to compounds; read-out: CTG H460: Avg IC50 (nM) [Assay Condition: ASP9521]. A digest of the protocol:
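H460 cells pre-incubated 24 h, then exposed to compounds for 72 h at 37 °C, 5% CO2. Viability read by CellTiter-Glo. ASP9521 (3 uM, AKR1C3 inhibitor) added 4 h before compounds.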
Background: Cellular ATP, detected with luciferase, serves as a proxy for viable cell number.

Experiment [2] shares this test system. The experiment in a line: In vitro human cancer cell line cytotoxicity (proliferation) assay in H460, CellTiter-Glo, 72 hours. The format is cell-based. Particulars: H460 cells, DMSO condition (no AKR1C3 inhibitor), read-out: CTG H460: Avg IC50 (nM) [Assay Condition: DMSO]. In outline:
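H460 cells were seeded at 3×10^3 per well and grown 24 h at 37 °C, 5% CO2 before compound addition from 10 mM DMSO stocks. After 72 h further incubation, viability was measured by CellTiter-Glo, and IC50 values in nM were derived from the proliferation data.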

IC50 data for 19 compounds are collected here from patent US20260167656A1, “PHOSPHORAMIDATE COMPOUNDS AND USES THEREOF” (ALLORION THERAPEUTICS INC, priority 2022, published 2026).

Each structure is given as a SMILES string.

As for `O=[N+]([O-])c1ccc2c(c1Oc1ccnc(C3CC3)c1)CCC2OP(=O)(N1CC1)N1CC1` (racemic) [Example 312], the figures for the IC50 in experiment [1] and in experiment [2] were 312 nM and less than 10 nM, respectively.

Regarding `O=C(c1ccc(Oc2cc3cc(COP(=O)(N4CC4)N4CC4)oc3cc2[N+](=O)[O-])cc1)N1CCOCC1` [Example 231], the IC50 (commonly the concentration at which inhibition is half-maximal) in experiment [1] is 278 nM; in experiment [2] (Homo sapiens, NCI-H460, 72 h) it was less than 10 nM.

Turning to `O=[N+]([O-])c1ccc2c(c1Oc1ccc(-c3ccc(F)cc3)cc1)OCCC2OP(=O)(N1CC1)N1CC1` (centres unmarked) [Example 132], the half-inhibitory concentration (IC50) in experiment [1] was 1250 nM; in experiment [2] (Homo sapiens, NCI-H460, 72 h), less than 10 nM.

On to `O=[N+]([O-])c1ccc2c(c1Oc1cccc(-c3noc(C4CC4)n3)c1)CCC2OP(=O)(N1CC1)N1CC1` (centres unmarked) [Example 90], for which the IC50 in experiment [1] was 9470 nM; in experiment [2] (Homo sapiens, NCI-H460, 72 h) it was no less than 100 nM.

Consider `C[C@@H](OP(=O)(N1CC1)N1CC1)c1cc2cc(Oc3cccc(C4CC4)c3)c([N+](=O)[O-])cc2o1` [Example 561], for which the figures for the 50% inhibitory concentration (IC50) in experiment [1] and in experiment [2] were 4230 nM and 10 to 50 nM, respectively.

For the compound `CNC(=O)c1ccc(Oc2c([N+](=O)[O-])ccc3c2OCCC3OP(=O)(N2CC2)N2CC2)cc1` (centres unmarked) [Example 136], the IC50 in experiment [1] was 913 nM; in experiment [2] it was 50 to 100 nM.

With `O=[N+]([O-])c1ccc2c(c1Oc1ccc(OC3CCCC3)cc1)CCC2OP(=O)(N1CC1)N1CC1` (centres unmarked) [Example 491], the results for the half-inhibitory concentration (IC50) in experiment [1] and in experiment [2] were 1940 nM and less than 10 nM, respectively.

`O=C1c2cc(Oc3c([N+](=O)[O-])ccc4c3CC[C@H]4OP(=O)(N3CC3)N3CC3)ccc2CN1C1CC1` (single isomer, unassigned) [Example 38]: the 50% inhibitory concentration (IC50) is 537 nM in experiment [1] and less than 10 nM in experiment [2] (Homo sapiens, NCI-H460, 72 h).

Take `O=[N+]([O-])c1ccc2c(c1Oc1cccc(-c3ccc(F)cn3)c1)CCC2OP(=O)(N1CC1)N1CC1` (racemic) [Example 320]: the figures for the IC50 in experiment [1] and in experiment [2] were 2230 nM and less than 10 nM, respectively.

With `O=[N+]([O-])c1ccc2c(c1Oc1ccc(-c3ncc(F)cn3)cc1)CC[C@H]2OP(=O)(N1CC1)N1CC1` (single isomer, unassigned) [Example 266], the IC50 in experiment [1] is 716 nM; in experiment [2] (Homo sapiens, NCI-H460, 72 h) it was 10 to 50 nM.

Turning to `CN1CCOc2ccc(Oc3cc4c(cc3[N+](=O)[O-])CCC4OP(=O)(N3CC3)N3CC3)cc2C1=O` (centres unmarked) [Example 159], the concentration for half-maximal inhibition (IC50) in experiment [1] is greater than 10000 nM; in experiment [2] it was no less than 100 nM.

Regarding `O=[N+]([O-])c1ccc2c(c1Oc1cccc(-n3ccc(C4CC4)n3)c1)CCC2OP(=O)(N1CC1)N1CC1` (centres unmarked) [Example 116], the IC50 in experiment [1] was 5560 nM; in experiment [2], 10 to 50 nM.

On to `O=[N+]([O-])c1ccc2c(c1Oc1ccc(OC3CCCC3)cc1)CCC2OP(=O)(N1CC1)N1CC1` (centres unmarked) [Example 490], for which the IC50 in experiment [1] was 788 nM; in experiment [2], less than 10 nM.

Consider `O=C(c1cccc(Oc2c([N+](=O)[O-])ccc3c2CCC3OP(=O)(N2CC2)N2CC2)c1)N1CCC(F)(F)C1` (centres unmarked) [Example 101], for which the IC50 in experiment [1] is 1210 nM; in experiment [2] (Homo sapiens, NCI-H460, 72 h), less than 10 nM.

For the compound `O=[N+]([O-])c1ccc2c(c1Oc1ccc(O)c(-c3ncccn3)c1)CC[C@@H]2OP(=O)(N1CC1)N1CC1` [Example 341], the 50% inhibitory concentration (IC50) is 1920 nM in experiment [1] and less than 10 nM in experiment [2] (Homo sapiens, NCI-H460, 72 h).

For the compound `O=[N+]([O-])c1ccc2c(c1Oc1ccc(F)c(-n3cncn3)c1)CC[C@@H]2OP(=O)(N1CC1)N1CC1` [Example 438], the IC50 in experiment [1] is 416 nM; in experiment [2] (Homo sapiens, NCI-H460, 72 h) it was less than 10 nM.

Turning to `CN1Cc2ccc(Oc3cc4c(cc3[N+](=O)[O-])OCCC4OP(=O)(N3CC3)N3CC3)cc2C1=O` (single isomer, unassigned) [Example 201], the IC50 in experiment [1] was 605 nM; in experiment [2] (Homo sapiens, NCI-H460, 72 h) it was less than 10 nM.

As to `O=[N+]([O-])c1ccc2c(c1Oc1ccc(F)c(-c3nncs3)c1)CC[C@@H]2OP(=O)(N1CC1)N1CC1` [Example 363], the IC50 is 584 nM in experiment [1] and less than 10 nM in experiment [2] (Homo sapiens, NCI-H460, 72 h).

On to `O=[N+]([O-])c1ccc2c(c1Oc1ccc(-c3ccc(O)cn3)cc1)CC[C@@H]2OP(=O)(N1CC1)N1CC1` [Example 290], for which the half-maximal inhibitory concentration (IC50) was 274 nM in experiment [1] and less than 10 nM in experiment [2] (Homo sapiens, NCI-H460, 72 h).
